# Where a SMILES comes first, the peptide text is derived from it. Bridges are numbered along the chain shown (N, C = ends). [ ]: non-standard residue; d: D form. hArg = N=C(N)NCCCC[C@H](N)C(=O)O; Mpa = O=C(O)CCS
# System: citrated whole blood (CWB)
# Test: Interference testing for Rapidpoint ENOX test in citrated whole blood
# Format: biochemical
# Details: for EFFECT on ENOX test: CWB; for sensitivity of the ENOX test to the agent: in vitro, citrated whole blood
structure (smiles),measurement,setting,value
CC(=O)Oc1ccccc1C(=O)O [Aspirin],EFFECT on ENOX test,0-300 ug/ml,No effect at 0-300 ug/ml
same,sensitivity of the ENOX test to the agent,,insensitive
N=C(N)NCCCC[C@@H]1NC(=O)CCSSC[C@@H](C(N)=O)NC(=O)[C@@H]2CCCN2C(=O)[C@H](Cc2c[nH]c3ccccc23)NC(=O)[C@H](CC(=O)O)NC(=O)CNC1=O [Eptifibatide] ([Mpa][hArg]GDWPC-NH2; disulfide 1-7),EFFECT on ENOX test,0-2600 ng/ml,No effect at 0-2600 ng/ml
same,sensitivity of the ENOX test to the agent,,insensitive
O=C(c1ccccc1)c1ccc2n1CCC2C(=O)O (centres unmarked) [Ketorolac tromethamine],EFFECT on ENOX test,0-12 ng/ml,No effect at 0-12 ng/ml
O=[N+]([O-])OCC(CO[N+](=O)[O-])O[N+](=O)[O-] [Nitroglycerin],EFFECT on ENOX test,0-1000 ng/ml,No effect at 0-1000 ng/ml
CCCCS(=O)(=O)N[C@@H](Cc1ccc(OCCCCC2CCNCC2)cc1)C(=O)O [Tirofiban],EFFECT on ENOX test,0-5600 ng/ml,No effect at 0-5600 ng/ml
same,sensitivity of the ENOX test to the agent,,insensitive
